# Where two headings read alike, the source gives them in different places.
# What was measured:
# Liver cGMP = Liver cGMP in rats; type: in vivo, male Sprague-Dawley rats; settings: 30 days, mean
# [1] = cited from earlier work
# in vivo = settings: male, Sprague-Dawley, rat, serum, oral
# [2] = Absorption study in rats: serum, liver and brain biotin; settings: for Brain Biotin / Liver Biotin / Serum Biotin: 30 days, mean
# [3] = Stability of magnesium D-biotinate (storage, hygroscopicity, light); type: physicochemical
# [4] = Solubility of magnesium D-biotinate; settings: for Solubility in water: compared with biotin
# [5] = 1 mg/kg body weight, listed as B, 1 mg/kg
# [6] = 100 mg/kg body weight, listed as B, 100 mg/kg
# [7] = 0.01 mg/kg body weight, listed as MgB, 0.01 mg/kg
# [8] = 1 mg/kg body weight, listed as MgB, 1 mg/kg
# [9] = 100 mg/kg body weight, listed as MgB, 100 mg/kg
smiles,measurement,setting,value
"O=C(O)CCCC[C@@H]1SC[C@@H]2NC(=O)N[C@@H]21 [Biotin, D-biotin]",Liver cGMP,Liver cGMP; 0.01 mg/kg body weight,8.46 pmol/mg protein
same,Liver cGMP,Liver cGMP; 1 mg/kg body weight,12.01 pmol/mg protein
same,Liver cGMP,Liver cGMP; 100 mg/kg body weight,14.68 pmol/mg protein
same,Solubility,[1]; Benzene,Soluble
same,Solubility,[1]; Dimethyl sulfoxide (DMSO),4.9 g/100 mL
same,Solubility,[1]; Ethanol,80 mg/100 mL
same,Solubility,[1]; Methanol,80 mg/100 mL
same,Solubility,"[1]; N,N-Dimethylformamide (DMF)",170 mg/100 mL
same,Solubility,"[1]; N,N-dimethylformamide, Merck Index",1.7 mg/mL
same,Solubility,[1]; Water,22 mg/100 mL
same,Solubility,"[1]; other common organic solvents, Merck Index",insoluble
same,concentration at 30 days,in vivo; 0.01 mg/kg,23.6 nM
same,concentration at 30 days,in vivo; 1 mg/kg,137 nM
same,concentration at 30 days,in vivo; 100 mg/kg,3520 nM
same,Brain Biotin,[2]; 0.01 mg/kg body weight,0.14 nmol/g
same,Liver Biotin,"[2]; 0.01 mg/kg body weight, listed as B, 0.01 mg/kg",0.02 nmol/g
same,Brain Biotin,[2]; [5],0.42 nmol/g
same,Liver Biotin,[2]; [5],0.56 nmol/g
same,Brain Biotin,[2]; [6],1.37 nmol/g
same,Liver Biotin,[2]; [6],1.38 nmol/g
"[O]=[Mg] [MgO, magnesium oxide]",Solubility,[1]; Benzene,salts insoluble
same,Solubility,[1]; Dimethyl sulfoxide (DMSO),MgO insoluble;
same,Solubility,[1]; Ethanol,MgO insoluble;
same,Solubility,[1]; Methanol,MgO insoluble;
same,Solubility,"[1]; N,N-Dimethylformamide (DMF)",MgO insoluble;
same,Solubility,[1]; Water,MgO insoluble;
O=C(O)CCCC[C@@H]1SC[C@@H]2NC(=O)N[C@@H]21 [magnesium D-biotinate],Storage stability,[3]; 30 days at 40% relative humidity and 25° C.,stable
same,Storage stability,"[3]; 30 days at 40% relative humidity and 25° C., listed as Magnesium biotinate",no signs of degradation
same,Storage stability,[3]; 30 days at 75% relative humidity and 40° C.,stable
same,Storage stability,"[3]; 30 days at 75% relative humidity and 40° C., listed as Magnesium biotinate",no signs of degradation
same,Stability on exposure to light,[3]; amorphous solid,stable upon exposure to light
same,Hygroscopicity,"[3]; amorphous solid, as measured by weight",not hygroscopic
same,Stability on exposure to light,"[3]; amorphous solid, listed as Magnesium biotinate",did not change color
same,Storage stability,[3]; room temperature,stable
same,Liver cGMP,Liver cGMP; 0.01 mg/kg body weight,8.60 pmol/mg protein
same,Liver cGMP,Liver cGMP; 1 mg/kg body weight,13.04 pmol/mg protein
same,Liver cGMP,Liver cGMP; 100 mg/kg body weight,17.07 pmol/mg protein
same,Solubility,[4]; Water,~10000 µg/mL
same,Solubility,[4]; water,≥ 10000 µg/mL
same,Solubility in water,[4]; water,unexpectedly soluble in water
same,Solubility in water,"[4]; water, listed as magnesium biotinate",significantly improved solubility
same,Liver Biotin,[2]; [7],0.03 nmol/g
same,Serum Biotin,[2]; [7],23.41 nmol/L
same,Brain Biotin,[2]; [8],0.66 nmol/g
same,Liver Biotin,[2]; [8],0.71 nmol/g
same,Serum Biotin,[2]; [8],171.13 nmol/L
same,Brain Biotin,[2]; [9],1.65 nmol/g
same,Liver Biotin,[2]; [9],1.62 nmol/g
same,Serum Biotin,[2]; [9],5161.43 nmol/L
same,Absorption,[2]; compared to biotin,higher absorption

# Reference: patent US12257238B2, “Magnesium biotinate compositions and methods of use” (Nutrition21, LLC, priority 2016, dated 2025)
